This is an account of results in patent US20240368664A1, “LIVE YEAST BIOSENSORS AND METHODS OF USE THEREOF” (priority 2021, published 2024).

Assay [1] addresses T1, Candida albicans pheromone GPCR CaSte2 (Candida albicans).
T1 sequence: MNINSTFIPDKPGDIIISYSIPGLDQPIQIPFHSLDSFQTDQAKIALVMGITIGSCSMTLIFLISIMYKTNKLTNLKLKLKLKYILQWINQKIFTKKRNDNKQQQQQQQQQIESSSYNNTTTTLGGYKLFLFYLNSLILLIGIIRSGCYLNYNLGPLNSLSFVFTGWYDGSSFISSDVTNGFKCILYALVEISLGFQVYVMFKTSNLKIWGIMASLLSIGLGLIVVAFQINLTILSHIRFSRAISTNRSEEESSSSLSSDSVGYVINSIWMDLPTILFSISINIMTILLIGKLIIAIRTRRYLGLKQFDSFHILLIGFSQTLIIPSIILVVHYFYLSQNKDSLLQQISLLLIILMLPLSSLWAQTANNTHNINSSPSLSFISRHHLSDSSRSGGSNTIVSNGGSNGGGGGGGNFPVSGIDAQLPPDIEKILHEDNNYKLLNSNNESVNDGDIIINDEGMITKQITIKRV
The experiment in a line: cell-based or functional assay.

For assay [2], the target named is ScSte2 with protease ScBar1 (Saccharomyces cerevisiae, UniProt D6VTK4). Type of assay: cell-based.
ScSte2 with protease ScBar1, sequence (D6VTK4 whole entry): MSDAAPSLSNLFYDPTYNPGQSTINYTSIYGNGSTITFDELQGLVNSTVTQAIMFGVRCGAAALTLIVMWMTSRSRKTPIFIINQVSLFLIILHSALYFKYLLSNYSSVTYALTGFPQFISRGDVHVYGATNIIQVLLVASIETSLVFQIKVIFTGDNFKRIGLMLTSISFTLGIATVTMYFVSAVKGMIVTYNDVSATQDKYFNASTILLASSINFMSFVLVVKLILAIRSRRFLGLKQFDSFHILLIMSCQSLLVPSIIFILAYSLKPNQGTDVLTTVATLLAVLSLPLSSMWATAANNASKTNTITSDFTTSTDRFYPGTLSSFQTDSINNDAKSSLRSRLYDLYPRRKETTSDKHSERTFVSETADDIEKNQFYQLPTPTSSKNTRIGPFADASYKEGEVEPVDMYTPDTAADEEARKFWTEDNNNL
Assay [3] has as its system CaSte2 with protease CaBar1. The settings on record: CaSte2 + CaBar1 (yBB02); Hill function best-fit ± standard error.
The next assay relates to CaSte2. Particulars: for Hill Slope: CaSte2 (yTC384), no protease, Hill function best-fit ± standard error; for EC50 compared to the native CaPep / response of CaSte2: alanine scan, system without CaBar1 (yTC384).
The target of assay [4] is T2, Saccharomyces cerevisiae pheromone GPCR ScSte2 (Saccharomyces cerevisiae) (UniProt D6VTK4).
T2 sequence: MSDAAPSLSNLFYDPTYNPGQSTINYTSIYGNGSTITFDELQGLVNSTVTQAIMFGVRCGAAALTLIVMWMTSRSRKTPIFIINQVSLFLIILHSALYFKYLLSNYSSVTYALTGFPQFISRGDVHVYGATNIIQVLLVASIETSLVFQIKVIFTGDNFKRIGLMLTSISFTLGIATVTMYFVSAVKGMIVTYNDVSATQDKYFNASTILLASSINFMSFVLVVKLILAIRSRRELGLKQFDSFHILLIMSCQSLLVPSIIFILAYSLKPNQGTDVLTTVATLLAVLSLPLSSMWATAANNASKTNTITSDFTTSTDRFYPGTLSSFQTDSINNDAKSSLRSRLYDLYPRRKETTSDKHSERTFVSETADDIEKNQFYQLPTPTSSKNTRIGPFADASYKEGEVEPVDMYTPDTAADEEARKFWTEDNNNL
The experiment in a line: cell-based or functional assay.

In the next assay the target is ScSte2 (Saccharomyces cerevisiae, UniProt D6VTK4). Nature of the assay: ScSte2 biosensor dose-response, ymTurquoise2 readout, no protease (incl. ScPep alanine scan, yTC391). The settings on record: Hill function best-fit ± standard error. It is filed as cell-based.
ScSte2, sequence (D6VTK4 whole entry): as the sequence (D6VTK4 whole entry) above
Assay [5] deals with T3, A. fumigatus pheromone GPCR (AfuSte2) (Aspergillus fumigatus).
T3 sequence: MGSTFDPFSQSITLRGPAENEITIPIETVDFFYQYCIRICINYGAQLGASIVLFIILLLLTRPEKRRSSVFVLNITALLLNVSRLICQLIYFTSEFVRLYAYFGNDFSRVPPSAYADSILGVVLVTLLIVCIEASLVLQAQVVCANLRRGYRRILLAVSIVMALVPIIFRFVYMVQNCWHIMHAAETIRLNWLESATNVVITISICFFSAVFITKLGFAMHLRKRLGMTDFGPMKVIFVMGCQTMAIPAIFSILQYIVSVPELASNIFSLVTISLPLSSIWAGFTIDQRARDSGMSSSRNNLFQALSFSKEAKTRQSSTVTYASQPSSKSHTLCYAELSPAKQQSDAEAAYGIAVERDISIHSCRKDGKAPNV
The experiment in a line: cell-based or functional assay.

Where “and” joins values, the source holds several entries; their conditions need not be identical. Identical values can stand only once. No end group written: not given here.

CaPep3A (peptide) displayed a Top in assay [1] of 460 A.U.
WHWLQLKPGQPAY [ScPep12A]: in assay [2], the Bottom came out at 2.5 ± 2.9 A.U, the “Hill Slope” value worked out at 1.3 ± 0.1, the LogEC50 is on record as −6.0 ± 0.1 M and the Top was 450 ± 10 A.U.
Take GFRLTAFGYFEPG [CaPep6A]: the “Hill Slope” value in assay [3] was 1.7 ± 0.2; in the assay with CaSte2, 4.4 ± 0.4.
With S. cerevisiae pheromone peptide (ScPep), in assay [4], the EC50 (mCherry/OD600) came to 2 nM; the Top was 380 A.U. and 390 A.U.
On to WAWLQLKPGQPMY [ScPep2A], for which the “Hill Slope” value at ScSte2 is listed as 3.7 ± 0.2. Besides, in assay [2], the Bottom is reported as 5.9 ± 3.0 A.U, the “Hill Slope” value amounted to 1.5 ± 0.1, the LogEC50 is listed as −5.0 ± 0.1 M and the Top came out at 350 ± 10 A.U.
Regarding GFRLTNFGYAEPG [CaPep10A], in assay [3], the “Hill Slope” value stood at 2.6 ± 0.13. For the same substance, in the assay on CaSte2, the “Hill Slope” value was 2.8 ± 0.5 and the “EC50 compared to the native CaPep” value is listed as “more than two orders of magnitude higher EC50”.
GFRLTNAGYFEPG [7A]: the “Hill Slope” value in assay [3] is given as 2.2 ± 0.4. Besides, in the assay on CaSte2, the “Hill Slope” value is listed as 1.4 ± 0.1 and the “response of CaSte2” value is listed as “practically non-responsive”.
As to ScPep2A (peptide), the Top in assay [4] is 270 A.U. and 350 A.U.
With ScPep11A (peptide), in assay [4], the Top was 410 A.U.
As for AFRLTNFGYFEPG [CaPep1A], the entries for the “Hill Slope” value (in assay [3]; in the assay with CaSte2) were 1.1 ± 0.22 and 3.0 ± 0.4, respectively.
Turning to GFRLTNFGYFAPG [CaPep11A], the “Hill Slope” value in assay [3] is on record as 1.5 ± 0.2.
Take ScPep6A (peptide): the Top in assay [4] was 310 A.U. and 390 A.U.
Turning to WHWAQLKPGQPMY [ScPep4A], in assay [2], the Bottom is recorded as −1.6 ± 2.9 A.U, the “Hill Slope” value worked out at 0.72 ± 0.04, the LogEC50 is −5.4 ± 0.1 M and the Top is reported as 340 ± 10 A.U.
As for CaPep1A (peptide), the Top in assay [1] was 460 A.U. and 410 A.U.
For ScPep12A (peptide), the Top in assay [4] is 410 A.U. and 450 A.U.
Consider GFRLTNFGYFEAG [12A], for which the “Hill Slope” value in assay [3] is 1.1 ± 0.1; in the assay on CaSte2 it was 0.95 ± 0.04. In addition, the “EC50 compared to the native CaPep” value in the assay with CaSte2 is recorded as “more than two orders of magnitude higher EC50”.
On to CaPep8A (peptide), for which, in assay [1], the Top was 640 A.U. and 460 A.U.
As for GFRLTNFGAAEPG [9A10A], the “Hill Slope” value in assay [3] is 1.0 ± 0.1. In the assay with CaSte2, the “Hill Slope” value is given as 0.99 ± 0.04 and the “EC50 compared to the native CaPep” value is “more than two orders of magnitude higher EC50”.
For ScPep9A (peptide), the Top in assay [4] was 370 A.U. and 440 A.U.
As for WHWLQLKPGQPMA [ScPep13A], the “Hill Slope” value at ScSte2 was found to be 8.2 ± 3.1. In assay [2], the Bottom is listed as 4.6 ± 2.5 A.U, the “Hill Slope” value came to 1.2 ± 0.1, the LogEC50 is −5.1 ± 0.1 M and the Top stood at 490 ± 10 A.U.
As to “synthetic A. fumigatus pheromone peptide (AfuPep)”, in assay [5], the EC50, GFP of the sender strain turned out to be 4 nM; the EC50, mCherry reporter in yeast is 100 nM; the EC50, mCherry, fine-tuned optimized strain stood at 40 nM; the EC50, mCherry, strain with natural signaling pathway worked out at 10 nM. Further, in assay [5], the LoD, lycopene readout, yTC590 came out at 50 nM; the activation fold change, fine-tuned optimized strain came to 2900 fold; the activation fold change, strain with natural signaling pathway stood at 19 fold; the fold change of fluorescence readout was determined as 4000 fold. Moreover, in assay [5], the limit of detection (LoD), lycopene readout, yTC527 is 30 nM; the maximal activation, mCherry, fine-tuned optimized strain amounted to 2900 A.U; the maximal activation, mCherry, strain with natural signaling pathway (yMJ194) was 450 A.U.
In assay [1], C. albicans pheromone peptide (CaPep) registered an EC50, lycopene readout, strains preincubated, +CaBar1 of 4 µM; an EC50, ymTurquoise2, biosensor with CaBar1 (pRPL18B) of 90 nM; an EC50, ymTurquoise2, biosensor without protease of 7 nM; a LogEC50 of -7.2 log M. Besides, the Top in assay [1] was 460 A.U. and 420 A.U.
As to GFALTNFGYFEPG [CaPep3A], the “Hill Slope” value is reported as 0.74 ± 0.08 in assay [3] and 2.0 ± 0.1 in the assay with CaSte2.
Consider ScPep4A (peptide), for which, in assay [4], the Top is 250 A.U. and 340 A.U.
Take WHWLQLKAGQPMY [ScPep8A]: the “Hill Slope” value at ScSte2 was 2.7 ± 0.1. Also, in assay [2], the Bottom came out at 4.6 ± 2.6 A.U, the “Hill Slope” value amounted to 1.1 ± 0.1, the LogEC50 was −5.6 ± 0.1 M and the Top worked out at 440 ± 10 A.U.
For the substance GFRLTNFGAFEPG [CaPep9A], the “Hill Slope” value in assay [3] is given as 1.7 ± 0.2; in the assay with CaSte2, 1.9 ± 0.1.
WHWLQAKPGQPMY [ScPep6A]: the “Hill Slope” value on ScSte2 is reported as 5.6 ± 0.7. For the same substance, in assay [2], the Bottom stood at 0.38 ± 5.71 A.U, the “Hill Slope” value worked out at 0.99 ± 0.10, the LogEC50 is listed as −5.5 ± 0.1 M and the Top is listed as 390 ± 10 A.U.
Consider ScPep13A (peptide), for which the Top in assay [4] is 360 A.U. and 490 A.U.
For “Smt3-Scα-Smt3 (two Smt3 fused in tandem with an α-factor linker, N-terminus 6x-His-tag) (from UniProt Q12306 1-98; Q12306 2-98)”, the EC50 (mCherry/OD600) in assay [4] was determined as 1080 nM.
For the substance ScPep3A (peptide), the Top in assay [4] was 280 A.U. and 370 A.U.
In the case of CaPep7A (peptide), in assay [1], the LogEC50 is -5.5 log M and -5.6 log M; the Top is 34 A.U. and 17 A.U.
On to GFRLTNFGYFEAA [12A13A], for which the “Hill Slope” value in assay [3] amounted to 1.8 ± 0.1. Further, in the assay with CaSte2, the “Hill Slope” value is listed as 2.8 ± 0.1 and the “EC50 compared to the native CaPep” value is on record as “more than two orders of magnitude higher EC50”.
Turning to ScPep8A (peptide), the Top in assay [4] is 430 A.U. and 440 A.U.
As to GFRLANFGYFEPG [CaPep5A], in the assay on CaSte2, the “Hill Slope” value was determined as 2.7 ± 0.7 and the “response of CaSte2” value was “practically non-responsive”.
Consider CaPep2A13A (peptide), for which, in assay [1], the EC50, ymTurquoise2, strain with the protease CaBar1 is 70 nM; the EC50, ymTurquoise2, strain without the protease worked out at 50 nM; the LogEC50 was -7 log M and -6.5 log M; the Top was 790 A.U. and 680 A.U.
Take “Smt3-Scα (α-factor fused to the C-terminus of full-length Smt3, 6x-His-tag at the opposite terminus) (from UniProt Q12306 1-98)”: the EC50 (mCherry/OD600) in assay [4] is 208 nM.
For ScPep10A (peptide), the Top in assay [4] is 380 A.U. and 420 A.U.
Turning to CaPep4A (peptide), in assay [1], the LogEC50 was -6.5 log M and -6.1 log M; the Top is 460 A.U. and 410 A.U.
With GFRATNFGYFEPG [CaPep4A], the “Hill Slope” value in assay [3] turned out to be 2.4 ± 0.4; with CaSte2 it was 1.3 ± 0.1.
CaPep5A (peptide): in assay [1], the LogEC50 is -5.2 log M and -4.9 log M; the Top is 15 A.U. and 13 A.U.
Consider CaPep6A (peptide), for which, in assay [1], the LogEC50 was -6.2 log M and -5.9 log M; the Top was 570 A.U. and 450 A.U.
For the substance ScPep5A (peptide), the Top in assay [4] was 380 A.U. and 340 A.U.
ScPep1A (peptide): the Top in assay [4] was 320 A.U. and 350 A.U.
Consider CaPep9A (peptide), for which, in assay [1], the Top is 700 A.U. and 480 A.U.
For the substance GFRLTNFAYFEPG [CaPep8A], the figures for the “Hill Slope” value (in assay [3]; in the assay on CaSte2) were 1.0 ± 0.1 and 1.3 ± 0.3, respectively.
In assay [4], “Scα-Smt3 (α-factor fused to the N-terminus of full-length Smt3, 6x-His-tag at the opposite terminus) (from UniProt Q12306 2-98)” displayed an EC50 (mCherry/OD600) of 149 nM.
Regarding ScPep7A (peptide), the Top in assay [4] is 400 A.U. and 380 A.U.
